Consider 5 compounds from ChEMBL document CHEMBL1151019, “Kinetics of thermal [1,7a]-sigmatropic shift of hexafluoro vitamin D3 and vitamin D3 derivatives. Evaluation of conformations of the A ring affected by 1-OH and 3-OH groups” (Bioorg Med Chem Lett, 1996).

Structures are written as SMILES.

A short description of the test: Kinetic constant for the transformation of vitamin D to Previtamin D (kl / k-1).
In turn, `C=C1/C(=C\C=C2/CCC[C@]3(C)C([C@H](C)C[C@H](O)CC(O)(C(F)(F)F)C(F)(F)F)CC[C@@H]23)C[C@@H](O)C[C@@H]1O` (stereo not given in full) displayed a Keq of 5.46.

Consider `C=C1CCCC/C1=C/C=C1\CCC[C@]2(C)C([C@H](C)CCCC(C)C)CC[C@@H]12` (stereo not given in full), for which the Keq was found to be 3.06. On to `C=C1/C(=C\C=C2/CCC[C@]3(C)C([C@H](C)CCCC(O)(C(F)(F)F)C(F)(F)F)CC[C@@H]23)C[C@@H](O)C[C@@H]1O` (stereo not given in full), for which the Keq was 5.1. As for `C=C1/C(=C\C=C2/CCC[C@]3(C)[C@@H]([C@H](C)CCCC(C)C)CC[C@@H]23)C[C@@H](O)C[C@@H]1O`, the figure is 5.18; as for `C=C1CC[C@H](O)C/C1=C/C=C1\CCC[C@]2(C)[C@@H]([C@H](C)CCCC(C)C)CC[C@@H]12`, 3.71.
